Data reported in ChEMBL document CHEMBL4024706 (Eur J Med Chem, 2017).

Experiments:
[1] = molecular target: Serine/threonine-protein kinase MARK1 (Homo sapiens) (UniProt Q9P0L2); experiment: Inhibition of wild-type human partial length MARK1 (Q30 to T341 residues) expressed in bacterial expression system assessed as residual activity at 1 uM by Kinomescan method relative to control
[2] = molecular target: Mast/stem cell growth factor receptor Kit (Homo sapiens) (UniProt P10721); experiment: Inhibition of wild-type human partial length autoinhibited KIT (Y545 to D952 residues) expressed in mammalian expression system assessed as residual activity at 1 uM by Kinomescan method relative to control
[3] = molecular target: Serine/threonine-protein kinase LATS1 (Homo sapiens) (UniProt O95835); experiment: Inhibition of wild-type human partial length LATS1 (Q678 to V1130 residues) expressed in bacterial expression system assessed as residual activity at 1 uM by Kinomescan method relative to control
[4] = molecular target: Serine/threonine-protein kinase WNK1 (Homo sapiens) (UniProt Q9H4A3); experiment: Inhibition of wild-type human partial length WNK1 (Q194 to A490 residues) expressed in mammalian expression system assessed as residual activity at 1 uM by Kinomescan method relative to control
[5] = molecular target: Tyrosine-protein kinase HCK (Homo sapiens) (UniProt P08631); experiment: Inhibition of wild-type human full length HCK (M22 to P526 residues) expressed in bacterial expression system assessed as residual activity at 1 uM by Kinomescan method relative to control
[6] = molecular target: Dual specificity mitogen-activated protein kinase kinase 7 (Homo sapiens) (UniProt O14733); experiment: Inhibition of wild-type human full length MKK7 (M1 to R419 residues) expressed in mammalian expression system assessed as residual activity at 1 uM by Kinomescan method relative to control
[7] = molecular target: Serine/threonine-protein kinase Nek10 (Homo sapiens) (UniProt Q6ZWH5); experiment: Inhibition of wild-type human partial length NEK10 (L488 to R809 residues) expressed in mammalian expression system assessed as residual activity at 1 uM by Kinomescan method relative to control
[8] = molecular target: Angiopoietin-1 receptor (Homo sapiens) (UniProt Q02763); experiment: Inhibition of wild-type human partial length TIE2 (N804 to T1112 residues) expressed in bacterial expression system assessed as residual activity at 1 uM by Kinomescan method relative to control
[9] = molecular target: BMP-2-inducible protein kinase (Homo sapiens) (UniProt Q9NSY1); experiment: Inhibition of wild-type human partial length BIKE (S34 to N329 residues) expressed in bacterial expression system assessed as residual activity at 1 uM by Kinomescan method relative to control
[10] = molecular target: Receptor tyrosine-protein kinase erbB-3 (Homo sapiens) (UniProt P21860); experiment: Inhibition of wild-type human partial length ERBB3 (G684 to A987 residues) expressed in mammalian expression system assessed as residual activity at 1 uM by Kinomescan method relative to control
[11] = molecular target: Casein kinase II subunit alpha' (Homo sapiens) (UniProt P19784); experiment: Inhibition of wild-type human full length CSNK2A2 (M1 to R350 residues) expressed in mammalian expression system assessed as residual activity at 1 uM by Kinomescan method relative to control
[12] = tested on: Phosphatidylinositol 4,5-bisphosphate 3-kinase catalytic subunit alpha isoform (Homo sapiens), P42336 [C420R]; experiment: Inhibition of human partial length PIK3CA C420R mutant (R108 to N1068 residues) expressed in mammalian expression system assessed as residual activity at 1 uM by Kinomescan method relative to control
[13] = molecular target: Mitogen-activated protein kinase kinase kinase 6 (Homo sapiens) (UniProt O95382); experiment: Inhibition of wild-type human partial length ASK2 (M278 to R972 residues) expressed in mammalian expression system assessed as residual activity at 1 uM by Kinomescan method relative to control
[14] = molecular target: Ribosomal protein S6 kinase alpha-3 (Homo sapiens) (UniProt P51812); experiment: Inhibition of wild-type human partial length N-terminal RSK2 kinase domain 1 (M1 to D394 residues) expressed in mammalian expression system assessed as residual activity at 1 uM by Kinomescan method relative to control
[15] = molecular target: Testis-specific serine/threonine-protein kinase 3 (Homo sapiens) (UniProt Q96PN8); experiment: Inhibition of wild-type human full length TSSK3 (M1 to T268 residues) expressed in mammalian expression system assessed as residual activity at 1 uM by Kinomescan method relative to control
[16] = molecular target: Aurora kinase C (Homo sapiens) (UniProt Q9UQB9); experiment: Inhibition of wild-type human full length AURKC (M1 to S275 residues) expressed in bacterial expression system assessed as residual activity at 1 uM by Kinomescan method relative to control
[17] = AUC (0 to t) in Sprague-Dawley rat at 1 mg/kg, iv by LC-MS/MS method; format: ADME, organism-based; settings: in vivo
[18] = molecular target: Phosphatidylinositol 4,5-bisphosphate 3-kinase catalytic subunit beta isoform (Homo sapiens) (UniProt P42338); experiment: Inhibition of wild-type human partial length PIK3CB (P118 to S1070 residues) expressed in mammalian expression system assessed as residual activity at 1 uM by Kinomescan method relative to control
[19] = tested on: Serine/threonine-protein kinase B-raf (Homo sapiens), P15056 [V600E]; experiment: Inhibition of human partial length BRAF V600E mutant (S429 to E741 residues) expressed in mammalian expression system assessed as residual activity at 1 uM by Kinomescan method relative to control
[20] = molecular target: STE20-like serine/threonine-protein kinase (Homo sapiens) (UniProt Q9H2G2); experiment: Inhibition of wild-type human partial length SLK (S14 to A307 residues) expressed in bacterial expression system assessed as residual activity at 1 uM by Kinomescan method relative to control
[21] = molecular target: Tyrosine-protein kinase Tec (Homo sapiens) (UniProt P42680); experiment: Inhibition of wild-type human partial length TEC (L341 to D620 residues) expressed in bacterial expression system assessed as residual activity at 1 uM by Kinomescan method relative to control
[22] = molecular target: BDNF/NT-3 growth factors receptor (Homo sapiens) (UniProt Q16620); experiment: Inhibition of wild-type human partial length TRKB (Q547 to G838 residues) expressed in mammalian expression system assessed as residual activity at 1 uM by Kinomescan method relative to control
[23] = tested on: Receptor-type tyrosine-protein kinase FLT3 (Homo sapiens), P36888 [D835H]; experiment: Inhibition of human partial length FLT3 D835H mutant (V592 to Y969 residues) expressed in bacterial expression system assessed as residual activity at 1 uM by Kinomescan method relative to control
[24] = molecular target: Mitogen-activated protein kinase 10 (Homo sapiens) (UniProt P53779); experiment: Inhibition of wild-type human partial length JNK3 (V28 to Q422 residues) expressed in mammalian expression system assessed as residual activity at 1 uM by Kinomescan method relative to control
[25] = molecular target: Mitogen-activated protein kinase kinase kinase kinase 1 (Homo sapiens) (UniProt Q92918); experiment: Inhibition of wild-type human full length HPK1 (M1 to R799 residues) expressed in bacterial expression system assessed as residual activity at 1 uM by Kinomescan method relative to control

Molecule `C=CC(=O)Nc1cc(Nc2cc(-c3cccc(NC(=O)c4ccc(C(C)(C)C)cc4)c3C)cn(C)c2=O)ccc1C(=O)N1CCOCC1` has an Activity [1] of 88%, an Activity [2] of 100% and an Activity [3] of 74%. For the same molecule, the Activity [4] was 89%, the Activity [5] was 100% and the Activity [6] was 100%. For the same molecule, the Activity [7] was 92%, the Activity [8] was 100% and the Activity [9] was 94%. For the same molecule, the Activity [10] was 88%, the Activity [11] was 100% and the Activity [12] was 100%. It also gave an Activity [13] of 95%, an Activity [14] of 100% and an Activity [15] of 100%. It also gave an Activity [16] of 100%, an AUC(0-t) [17] of 182 ng·h/mL and an Activity [18] of 100%. For the same molecule, the Activity [19] was 100%, the Activity [20] was 100% and the Activity [21] was 95%. For the same molecule, the Activity [22] was 80%, the Activity [23] was 100% and the Activity [24] was 91%. For the same molecule, the Activity [25] was 100%.
